This experiment has as its target T1, Flag/GST-tagged recombinant human B-Raf (Homo sapiens, UniProt P15056).
T1 construct: Flag; GST; made in house; host or cells: Sf9 insect cells (B-Raf); E. coli (MEK1-GST)
As to the kind of experiment: B-Raf kinase assay (phosphorylation of GST-MEK1, phospho-MEK1 antibody/Europium detection). The experiment is classed as biochemical. Conditions: B-Raf IC50 Data for compounds of Formula A; read-out: Mean IC50. The gist of the method:
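Active B-Raf (0.2 nM) phosphorylates GST-MEK1 in 20 mM MOPS pH 7.2 buffer with DTT, vanadate and 0.01% Triton X-100. The Mg/ATP cocktail (200 μM ATP, 40 mM MgCl2) is added, then incubation runs 45 min at RT. Product is captured on anti-GST plates and detected by anti-phospho-MEK1 plus Europium-anti-rabbit fluorescence, giving % inhibition per concentration.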

For orientation: IC50 means the concentration that inhibits the measured activity by half.

Some results are limits rather than exact numbers.

T1 sequence (P15056 whole entry): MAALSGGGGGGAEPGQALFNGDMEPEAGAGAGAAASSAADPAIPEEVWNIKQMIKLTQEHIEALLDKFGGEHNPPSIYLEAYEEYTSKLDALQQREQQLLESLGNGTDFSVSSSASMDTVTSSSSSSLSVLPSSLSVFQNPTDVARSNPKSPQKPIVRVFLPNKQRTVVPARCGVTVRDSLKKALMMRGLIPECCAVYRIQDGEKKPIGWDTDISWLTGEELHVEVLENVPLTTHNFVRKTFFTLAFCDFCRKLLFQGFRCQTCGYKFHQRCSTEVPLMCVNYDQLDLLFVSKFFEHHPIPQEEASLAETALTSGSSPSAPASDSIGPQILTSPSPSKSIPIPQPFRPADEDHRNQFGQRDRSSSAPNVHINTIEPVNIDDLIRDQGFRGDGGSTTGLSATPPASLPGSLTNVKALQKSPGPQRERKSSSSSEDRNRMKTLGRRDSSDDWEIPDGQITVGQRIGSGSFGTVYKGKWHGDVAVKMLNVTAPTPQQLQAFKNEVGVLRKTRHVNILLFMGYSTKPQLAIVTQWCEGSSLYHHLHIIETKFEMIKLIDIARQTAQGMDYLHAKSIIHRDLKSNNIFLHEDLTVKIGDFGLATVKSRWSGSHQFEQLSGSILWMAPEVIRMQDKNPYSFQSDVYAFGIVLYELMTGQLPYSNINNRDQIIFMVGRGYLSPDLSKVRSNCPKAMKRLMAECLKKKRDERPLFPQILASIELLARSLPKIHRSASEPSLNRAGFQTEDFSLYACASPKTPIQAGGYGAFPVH

On to `CN1C[C@@H]2C[C@H]1CN2c1c(F)cc(-c2ccnc3c(-c4cccc5[nH]ncc45)c(-c4ccncc4)nn23)cc1F` [Example 164, 7-{3,5-difluoro-4-[(1S,4S)-5-methyl-2,5-diazabicyclo[2.2.1]hept-2-yl]phenyl}-3-(1H-indazol-4-yl)-2-pyridin-4-ylpyrazolo[1,5-a]pyrimidine], for which the IC50 is 9.6 nM.

For `CN1C[C@@H]2C[C@H]1CN2c1ccc(-c2ccnc3c(-c4cccc5[nH]ncc45)c(-c4ccncc4)nn23)c(F)c1F` [Example 165, 7-{2,3-difluoro-4-[(1S,4S)-5-methyl-2,5-diazabicyclo[2.2.1]hept-2-yl]phenyl}-3-(1H-indazol-4-yl)-2-pyridin-4-ylpyrazolo[1,5-a]pyrimidine], the IC50 was found to be 0.6 nM.

Consider `CN1C[C@@H]2C[C@H]1CN2c1cc(F)c(-c2ccnc3c(-c4cccc5[nH]ncc45)c(-c4ccncc4)nn23)cc1F` [Example 166, 7-{2,5-difluoro-4-[(1S,4S)-5-methyl-2,5-diazabicyclo[2.2.1]hept-2-yl]phenyl}-3-(1H-indazol-4-yl)-2-pyridin-4-ylpyrazolo[1,5-a]pyrimidine], for which the concentration for half-maximal inhibition (IC50) amounted to 0.4 nM.

Regarding `CCN1C[C@@H]2C[C@H]1CN2c1cc(F)c(-c2ccnc3c(-c4cccc5[nH]ncc45)c(-c4ccncc4)nn23)c(F)c1` [Example 167, 7-{4-[(1S,4S)-5-ethyl-2,5-diazabicyclo[2.2.1]hept-2-yl]-2,6-difluorophenyl}-3-(1H-indazol-4-yl)-2-pyridin-4-ylpyrazolo[1,5-a]pyrimidine], the half-maximal inhibitory concentration (IC50) was less than 0.3 nM.

As for `CC(C)CN1C[C@@H]2C[C@H]1CN2c1cc(F)c(-c2ccnc3c(-c4cccc5[nH]ncc45)c(-c4ccncc4)nn23)c(F)c1` [Example 168, 7-{2,6-difluoro-4-[(1S,4S)-5-isobutyl-2,5-diazabicyclo[2.2.1]hept-2-yl]phenyl}-3-(1H-indazol-4-yl)-2-pyridin-4-ylpyrazolo[1,5-a]pyrimidine], the IC50 is less than 0.3 nM.

With `CC(C)N1C[C@@H]2C[C@H]1CN2c1cc(F)c(-c2ccnc3c(-c4cccc5[nH]ncc45)c(-c4ccncc4)nn23)c(F)c1` [Example 169, 7-{2,6-difluoro-4-[(1S,4S)-5-isopropyl-2,5-diazabicyclo[2.2.1]hept-2-yl]phenyl}-3-(1H-indazol-4-yl)-2-pyridin-4-ylpyrazolo[1,5-a]pyrimidine], the half-inhibitory concentration (IC50) is less than 0.3 nM.

With `Fc1cc(N2C[C@@H]3C[C@H]2CN3C2CCC2)cc(F)c1-c1ccnc2c(-c3cccc4[nH]ncc34)c(-c3ccncc3)nn12` [Example 170, 7-{4-[(1S,4S)-5-cyclobutyl-2,5-diazabicyclo[2.2.1]hept-2-yl]-2,6-difluorophenyl}-3-(1H-indazol-4-yl)-2-pyridin-4-ylpyrazolo[1,5-a]pyrimidine], the IC50 is less than 0.3 nM.

Take `Fc1cc(N2C[C@@H]3CC[C@H]2CN3)ccc1-c1ccnc2c(-c3cccc4[nH]ncc34)c(-c3ccncc3)nn12` [Example 172, 7-{4-[(1S,4S)-2,5-diazabicyclo[2.2.2]oct-2-yl]-2-fluorophenyl}-3-(1H-indazol-4-yl)-2-pyridin-4-ylpyrazolo[1,5-a]pyrimidine]: the 50% inhibitory concentration (IC50) was 0.3 nM.

As for `CN1C[C@@H]2CC[C@H]1CN2c1ccc(-c2ccnc3c(-c4cccc5[nH]ncc45)c(-c4ccncc4)nn23)c(F)c1` [Example 173, 7-{2-fluoro-4-[(1S,4S)-5-methyl-2,5-diazabicyclo[2.2.2]oct-2-yl]phenyl}-3-(1H-indazol-4-yl)-2-pyridin-4-ylpyrazolo[1,5-a]pyrimidine], the half-inhibitory concentration (IC50) was found to be 0.4 nM.

As for `CN1C[C@@H]2C[C@H]1CN2c1c(F)c(F)c(-c2ccnc3c(-c4cccc5[nH]ncc45)c(-c4ccncc4)nn23)c(F)c1F` [Example 174, 3-(1H-indazol-4-yl)-2-pyridin-4-yl-7-{2,3,5,6-tetrafluoro-4-[(1S,4S)-5-methyl-2,5-diazabicyclo[2.2.1]hept-2-yl]phenyl}pyrazolo[1,5-a]pyrimidine], the half-maximal inhibitory concentration (IC50) is 0.4 nM.

As for `CC(C)(C)OC(=O)N1C[C@@H]2C[C@H]1CN2c1ccc(-c2ccnc3c(-c4ccc(F)c5[nH]ncc45)c(-c4ccncc4)nn23)c(Cl)c1` [Example 175, tert-butyl (1S,4S)-5-{3-chloro-4-[3-(7-fluoro-1H-indazol-4-yl)-2-pyridin-4-ylpyrazolo[1,5-a]pyrimidin-7-yl]phenyl}-2,5-diazabicyclo[2.2.1]heptane-2-carboxylate], the IC50 worked out at 1 nM.

As for `Fc1ccc(-c2c(-c3ccncc3)nn3c2nccc3[C@H]2CC[C@@H](N3C[C@@H]4C[C@H]3CN4)CC2)c2cn[nH]c12` [Example 176, 7-{cis-4-[(1S,4S)-2,5-diazabicyclo[2.2.1]hept-2-yl]cyclohexyl}-3-(7-fluoro-1H-indazol-4-yl)-2-pyridin-4-ylpyrazolo[1,5-a]pyrimidine], the IC50 was 1 nM.

For the molecule `Fc1ccc(-c2c(-c3ccncc3)nn3c2nccc3[C@H]2CC[C@@H](N3C[C@@H]4C[C@H]3CO4)CC2)c2cn[nH]c12` [Example 177, 3-(7-fluoro-1H-indazol-4-yl)-7-{cis-4-[(1S,4S)-2-oxa-5-azabicyclo[2.2.1]hept-5-yl]cyclohexyl}-2-pyridin-4-ylpyrazolo[1,5-a]pyrimidine], the IC50 is 4 nM.

`Fc1ccc(-c2c(-c3ccncc3)nn3c2nccc3[C@H]2CC[C@H](N3C[C@@H]4C[C@H]3CO4)CC2)c2cn[nH]c12` [Example 178, 3-(7-fluoro-1H-indazol-4-yl)-7-{trans-4-[(1S,4S)-2-oxa-5-azabicyclo[2.2.1]hept-5-yl]cyclohexyl}-2-pyridin-4-ylpyrazolo[1,5-a]pyrimidine]: the IC50 stood at 6.7 nM.

Turning to `Fc1ccc(-c2c(-c3ccncc3)nn3c2nccc3[C@H]2CC[C@H](N3C[C@@H]4C[C@H]3CN4)CC2)c2cn[nH]c12` [Example 183, 7-{trans-4-[(1S,4S)-2,5-diazabicyclo[2.2.1]hept-2-yl]cyclohexyl}-3-(7-fluoro-1H-indazol-4-yl)-2-pyridin-4-ylpyrazolo[1,5-a]pyrimidine], the IC50 is less than 0.3 nM.

Consider `Fc1ccc(-c2c(-c3ccncc3)nn3c(-c4ccc(N5C[C@@H]6C[C@H]5CN6)cc4Cl)ccnc23)c2cn[nH]c12` [Example 184, 7-{2-chloro-4-[(1S,4S)-2,5-diazabicyclo[2.2.1]hept-2-yl]phenyl}-3-(7-fluoro-1H-indazol-4-yl)-2-pyridin-4-ylpyrazolo[1,5-a]pyrimidine], for which the IC50 was less than 0.3 nM.

As to `Fc1cc(-c2ccnc3c(-c4cccc5[nH]ncc45)c(-c4ccncc4)nn23)ccc1N1C[C@@H]2C[C@H]1CN2` [Example 185, 7-{4-[(1S,4S)-2,5-diazabicyclo[2.2.1]hept-2-yl]-3-fluorophenyl}-3-(1H-indazol-4-yl)-2-pyridin-4-ylpyrazolo[1,5-a]pyrimidine], the half-maximal inhibitory concentration (IC50) turned out to be 1.7 nM.

Turning to `FC(F)(F)c1cc(N2C[C@@H]3C[C@H]2CN3)ccc1-c1ccnc2c(-c3cccc4[nH]ncc34)c(-c3ccncc3)nn12` [Example 186, 7-{4-[(1S,4S)-2,5-diazabicyclo[2.2.1]hept-2-yl]-2-(trifluoromethyl)phenyl}-3-(1H-indazol-4-yl)-2-pyridin-4-ylpyrazolo[1,5-a]pyrimidine], the IC50 stood at 1.1 nM.

`Brc1cc(N2C[C@@H]3C[C@H]2CN3)ccc1-c1ccnc2c(-c3cccc4[nH]ncc34)c(-c3ccncc3)nn12` [Example 187, 7-{2-bromo-4-[(1S,4S)-2,5-diazabicyclo[2.2.1]hept-2-yl]phenyl}-3-(1H-indazol-4-yl)-2-pyridin-4-ylpyrazolo[1,5-a]pyrimidine]: the IC50 is less than 0.3 nM.

Consider `CN1C[C@@H]2C[C@H]1CN2c1ccc(-c2ccnc3c(-c4cccc5[nH]ncc45)c(-c4ccncc4)nn23)cc1F` [Example 188, 7-{3-fluoro-4-[(1S,4S)-5-methyl-2,5-diazabicyclo[2.2.1]hept-2-yl]phenyl}-3-(1H-indazol-4-yl)-2-pyridin-4-ylpyrazolo[1,5-a]pyrimidine], for which the IC50 came out at 1.9 nM.

For `CN1C[C@@H]2C[C@H]1CN2c1ccc(-c2ccnc3c(-c4cccc5[nH]ncc45)c(-c4ccncc4)nn23)c(C(F)(F)F)c1` [Example 189, 3-(1H-indazol-4-yl)-7-{4-[(1S,4S)-5-methyl-2,5-diazabicyclo[2.2.1]hept-2-yl]-2-(trifluoromethyl)phenyl}-2-pyridin-4-ylpyrazolo[1,5-a]pyrimidine], the 50% inhibitory concentration (IC50) came to 1.4 nM.

Regarding `CN1C[C@@H]2C[C@H]1CN2c1ccc(-c2ccnc3c(-c4cccc5[nH]ncc45)c(-c4ccncc4)nn23)c(Br)c1` [Example 190, 7-{2-bromo-4-[(1S,4S)-5-methyl-2,5-diazabicyclo[2.2.1]hept-2-yl]phenyl}-3-(1H-indazol-4-yl)-2-pyridin-4-ylpyrazolo[1,5-a]pyrimidine], the concentration for half-maximal inhibition (IC50) is less than 0.3 nM.

On to `C1=C(c2ccnc3c(-c4cccc5[nH]ncc45)c(-c4ccncc4)nn23)CCC2(C1)OCCO2` [Example 191, 7-(1,4-dioxaspiro[4.5]dec-7-en-8-yl)-3-(1H-indazol-4-yl)-2-pyridin-4-ylpyrazolo[1,5-a]pyrimidine], for which the IC50 stood at 56.1 nM.

For `C[N+]1([O-])C[C@@H]2C[C@H]1CN2c1cc(F)c(-c2ccnc3c(-c4cccc5[nH]ncc45)c(-c4ccncc4)nn23)c(F)c1` (stereo partly drawn) [Example 192, 7-{2,6-difluoro-4-[(1S,4S)-5-methyl-5-oxido-2,5-diazabicyclo[2.2.1]hept-2-yl]phenyl}-3-(1H-indazol-4-yl)-2-pyridin-4-ylpyrazolo[1,5-a]pyrimidine], the IC50 was 0.4 nM.

On to `c1cc(-c2c(-c3ccncc3)nn3c(-c4coc(CN5C[C@@H]6C[C@H]5CO6)c4)ccnc23)c2cn[nH]c2c1` [Example 193, 3-(1H-indazol-4-yl)-7-{5-[(1S,4S)-2-oxa-5-azabicyclo[2.2.1]hept-5-ylmethyl]furan-3-yl}-2-pyridin-4-ylpyrazolo[1,5-a]pyrimidine], for which the half-maximal inhibitory concentration (IC50) was determined as 18.8 nM.

The record behind these values is patent US20100029657A1, “Bridged, Bicyclic Heterocyclic or Spiro Bicyclic Heterocyclic Derivatives of Pyrazolo[1, 5-A]Pyrimidines, Methods for Preparation and Uses Thereof” (Wyeth, priority 2008, published 2010).
